Results reported in patent publication US20170198337A1, “HIGH THROUGHPUT TELOMERIC CIRCLE ASSAY” (SENS FOUNDATION, INC., priority 2014, published 2017).

Experiments:
ALT-positive cell lines = test: CC EATR assay, C-circle content of cells treated with hydroxyurea, 96-well plates; format: cell-based, human; conditions: high-throughput format, FIG. 14
Experimental: FIG. 14 depicts the detection of experimentally modulated ALT levels using the CC EATR assay. Treatment of cells with hydroxyurea (HU) decreases ALT levels. […] This experiment was performed in a high-throughput format in a 96-well plates.
For the fluorescence-based detection of RCA-mediated, CC-derived products (FIGS. 3 and 4, illustrating exonuclease digestion from the 5′ or 3′ terminus, respectively), 20 μL of each sample post-RCA (a single reaction per sample) was combined with 20 μL of 0.1 mg/ml BSA, 3 mM DTT, 0.05% Tween, 10 mM Bis-Tris-Propane-HCl, 10 mM MgCl2 (final pH 7.0 at 25 degrees C.), 2.5 U of Exonuclease III or 10 U of T7 Exonuclease (NEB), and 100 nM of (CCCTAA)2 probe labeled at the 5′ end with a 6-Carboxyfluorescein (FAM) fluorophore and a ZEN internal quencher (Integrated DNA Technologies) at the first T position. […] Fluorescence signals were collected using Applied Biosystems StepOnePlus Real-Time PCR system configured to acquire data from FAM/FITC filter sets and the reaction was run at 37° C. for 1 hour with signal being collected at 0 min and then every 15 min thereafter. […]
On day 0, passage 50 U2OS cells were seeded into a 10 cm plate, a 6 well plate, a 24 well plate and a 96 well plate at quantities of 5×10^5, 3×10^5, 1×10^4 and 1×10^4 per well respectively. […]

ALT-positive cells = conditions: reported in the literature; cited from earlier work

NC(=O)NO [hydroxyurea]
C-circle content of ALT-positive cell lines after HU treatment (ALT-positive cell lines): significant decreases
ALT activity of ALT-positive cells upon treatment (ALT-positive cells): decreased ALT activity
